Measurements from US20100048523A1, “Compounds, Compositions and Methods for Treating Hormone-Dependent Maladies” (priority 2006, published 2010).

Experiments:
[1] = system: MCF-10A p21 knock out cell lines (ERα positive); experiment: Growth assay (crystal violet) of ERα positive MCF-10A p21−/− cells; assay type: cell-based, human; details: for growth (cell proliferation) in response to the substance: ERα positive MCF-10A p21−/− (p21 null)
Method: (§1) ERα positive MCF-10A (ERIN#9), pIRESpuro2 transfection control (−) control, and ERα positive MCF-10A p21−/− (1.6#4) cell lines were seeded in assay media (no EGF) and exposed to estrogen (E2), vehicle only, estrogen and Tamoxifen (E2+Tam), estrogen and Faslodex (E2+ICI), Tamoxifen alone (Tam) and Faslodex alone (ICI). Cells were grown for 1 week and stained with crystal violet. Results are representative of multiple clones including heterozygous controls, and assays were repeated three times for each clone.
(§2) The creation of a non-tumorigenic human breast epithelial cell line (MCF-10A) in which the p21 gene was deleted through targeted homologous recombination has been previously described. Because p21 has been implicated in Tamoxifen resistance, and the response of Tamoxifen in both parental MCF-10A cells and their p21−/− derivatives was assessed. MCF-10A cells are ERα negative and unresponsive to estrogen stimulation. In order to develop a model system to analyze the effects of estrogen and anti-estrogen signaling, MCF-10A cells and their p21−/− derivatives were stably transfected with a cDNA encoding for wild type ERα.
(§3) Unlike previous attempts to stably integrate ERα into the MCF-10A cell line, a cloning vector containing an internal ribosome entry site (IRES) was used to ensure high levels of wild type ERα expression. The full coding sequence of wild type ERα was PCR cloned into pIRESpuro2 (Clontech) and the absence of any coding mutations was verified by direct sequencing.
(§4) Cell lines were generated and grown with charcoal stripped dextran treated serum (Hyclone) and phenol red free medium to avoid any possible growth effects of estrogen in the medium.

[2] = system: MCF-10A cells stably overexpressing ERα; experiment: Growth assay (crystal violet) of ERα positive MCF-10A cells; assay type: cell-based, human; details: for effect on estrogen-induced proliferation: ERα positive MCF-10A (p21+/+), with estrogen
Method: as §1, §2, §3, §4

[3] = system: metastatic breast cancer (skin); experiment: Case report: metastatic breast cancer (skin) nodule under Tamoxifen; assay type: in vivo, human
[4] = system: ER/PR positive breast cancers; details: adjuvant setting; cited from earlier work
[5] = system: p21−/− MCF-10A breast cancer cell lines; experiment: High-throughput cell-based growth inhibition screen, p21 knock-out (Erik) vs parental (Erin) cell lines; set-up: species or system human

| Compound | effect on estrogen-induced proliferation [2] | growth (cell proliferation) in response to the substance [1] | targeting of tamoxifen resistant ER positive cells [5] | also measured |
| --- | --- | --- | --- | --- |
| C[C@]12CC[C@@H]3c4ccc(O)cc4C[C@@H](CCCCCCCCC[S+]([O-])CCCC(F)(F)C(F)(F)F)[C@H]3[C@@H]1CC[C@@H]2O (stereo partly shown) [Faslodex, fulvestrant] | inhibited | – | – | effect on proliferative effects of estrogen ([1]; p21−/− cell lines, with estrogen): could still inhibit |
| CC/C(=C(\c1ccccc1)c1ccc(OCCN(C)C)cc1)c1ccccc1 [Tamoxifen] | inhibited | grew in response | – | growth inhibitory effect on p21 knock out cells ([1]; ERα positive MCF-10A p21−/−): resistant to the growth inhibitory effects; behaviour of recurrent skin nodule during Tamoxifen ([3]; 2003, in the presence of Tamoxifen): growing in the presence of Tamoxifen; behaviour of skin nodule after Tamoxifen cessation ([3]; one month after Tamoxifen cessation): went away after cessation; reduction of the risk of recurrence [4]: ≤ 47% |
| CC(=O)Oc1ccc2c(c1)CCC1C2CC[C@@]2(C)C1CCC21OCCO1 (stereo partly shown) [Compound 233-E09] | – | – | target tamoxifen resistant ER positive cells | – |
| CC12CCC3c4ccc(O)cc4CCC3C1CCC21OCCO1 (stereo not shown) [Compound 233-D4] | – | – | target tamoxifen resistant ER positive cells | – |
| estrogen | – | – | – | proliferation in response to the substance ([2]; ERα positive MCF-10A, assay media without EGF, 1 week): proliferated in response to estrogen |
| O=C(c1ccc(OCCN2CCCCC2)cc1)c1c(-c2ccc(O)cc2)sc2cc(O)ccc12 [Raloxifene] | behaved identically to Tamoxifen | not as pronounced as Tamoxifen's | – | – |
